Source: patent US11707442B2, “Antibacterial and antifungal compounds” (The General Hospital Corporation, priority 2015, dated 2023)
In brackets after ≈: the same amount, converted by molar mass. Where two headings read alike, the source gives them in different places.

Key:
[1] = Giant unilamellar vesicles (GUVs) disruption; settings: DOPC/DOPG 7:3; 1× and 10×MIC; result in words
[2] = test system: C. elegans infected with MRSA strain MW2; assay type: in vivo; settings: for C. elegans animals surviving MRSA infection: concentrations above the MIC
Method: The C. elegans-MRSA liquid infection assay has been described (Rajamuthiah et al. Plos One. 2014; 9(2):e89189). In brief, 4,500 glp-4 (bn2); sek-1(km4) L1 hatchlings were grown on SK-HB101 agar plates for 52 hours at the restrictive temperature of 25° C. until animals became sterile young adults and later harvested with M9 buffer. S. aureus MW2 was grown overnight at 37° C. in TSB, first under aerobic conditions and later shifted to anaerobic growth conditions at 37° C. The infection assay was performed in standard 384-well assay plates, in the presence of the compound being tested or 1% dimethyl sulfoxide (DMSO) as a control. Bacteria were added to the wells at a final OD600 of 0.06, followed by the use of a Complex Object Parametric Analyzer and Sorter (COPAS) large particle sorter (Union Biometrica, Holliston, Mass., USA) to transfer 15 adult worms to each well of an assay plate. After 5 days of incubation in a humidified chamber at 25° C., the bacteria and other debris were washed from the wells with a microplate washer and the worms were stained with the vital dye Sytox Orange (Life Technologies). After overnight incubation at 25° C. in a humidified chamber, the plates were imaged using an Image Xpress Micro automated microscope (Molecular Devices, Sunnyvale, Calif., USA), capturing both transmitted light and TRITC (535 nm excitation, 610 nm emission) fluorescent images with a 2× objective. The images from the infection assay were processed using the open source image analysis software CellProfiler and analysis modules as described previously. The ratio of Sytox worm area to bright field worm area, and the resultant percentage survival data, is calculated by the software for each well of the assay plates. The assay was performed in triplicate comparing the survival of worms at various concentrations of drugs.
Killing assays were carried out as described in Methods using S. aureus MRSA MW2 and 10 μg/ml retinoids, 10 μg/ml vancomycin (positive control), or 1% DMSO (negative control) at 25° C. for 5 days. Data are representative of three independent experiments. (B) Chemical structures of synthetic retinoids. (C) Growth of MRSA strain MW2 exposed to the indicated concentrations of compounds was quantified by measuring OD600 after 18 h in tryptic soy broth (TSB). (D) C. elegans infected with MRSA strain MW2 was treated with indicated concentrations of compounds. Percent survival of C. elegans was normalized to C. elegans treated with DMSO. (E-F) MRSA persisters prepared as described in Methods were treated with the indicated concentrations of each retinoid. Viability was measured by serial dilution and plating on TSA plates. The data points on the x-axis are below the level of detection (2×10^2 CFU/ml). (E,F) Results are shown as means±s.d.; n=3.

S. aureus = assay: Minimal inhibitory concentration (MIC), broth microdilution; assay type: cell-based, Staphylococcus aureus
Outline: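 MIC values against methicillin-resistant Staphylococcus aureus were determined by standard broth microdilution following Clinical and Laboratory Standards Institute guidance (CLSI document M07-A8). Each well held 100 μl of test compound plus bacterial cells in MH broth, with the starting OD600 set to 0.03. Plates were incubated 18 hrs at 35° C. and absorbance was then read at 595 nm.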

hERG potassium channel = molecular target: T1, hERG potassium channel (Homo sapiens, UniProt Q12809); assay: hERG potassium channel inhibition (IonWorks HT, CHO cells); assay type: cell-based; settings: at 25 μM
T1 construct: host or cells: Chinese hamster ovary (CHO) cells
Method: Evaluation of human ether-a-go-go-related gene (hERG) potassium channel inhibition potential. […] Electrophysiology measurement was conducted using an IonWorks™ HT instrument (Molecular Devices Corporation, Sunnyvale, Calif., USA) and 384-well planar PatChPlate™ (Molecular Devices Corporation). Briefly, Chinese hamster ovary (CHO) cells expressing the hERG potassium channel were dispensed into 384-well planar arrays, and hERG tail currents were measured by whole-cell voltage clamping. A range of concentrations (0.008 μM to 25 μM) of each retinoid were then added to the cells, and a second recording of the hERG current was made. The percent change in the hERG current was calculated.

E. faecalis = assay: MIC, broth microdilution; assay type: cell-based, Enterococcus faecalis; settings: for MIC: Enterococcus faecalis, E. faecalis, (range given for E. faecium and E. faecalis); for susceptibility of E. faecalis: result in words
Method: To test the bacterial MICs for compounds described herein, the total volume in each well was 100 μl of test compounds and bacterial cells in MH broth. Two-fold serial dilutions were carried out to get compounds in the concentration range 0.0625-64 μg/ml. The bacterial concentration was adjusted to an initial OD600 of 0.03. After incubation at 35° C. for 18 hrs, the absorbance was measured at 595 nm in accordance with CLSI document M07-A8. The MICs of antibiotics were determined by the standard microdilution method recommended by the Clinical and Laboratory Standards Institute.

[3] = Staphylococcus aureus, S. aureus BF1, read-out: Minimum inhibitory concentration
[4] = Staphylococcus aureus, S. aureus BF2, read-out: Minimum inhibitory concentration
[5] = Staphylococcus aureus, S. aureus BF3, read-out: Minimum inhibitory concentration
[6] = Staphylococcus aureus, S. aureus BF4, read-out: Minimum inhibitory concentration
[7] = Staphylococcus aureus, S. aureus BF5, read-out: Minimum inhibitory concentration
[8] = Staphylococcus aureus, S. aureus BF6, read-out: Minimum inhibitory concentration
[9] = Staphylococcus aureus, S. aureus BF7, read-out: Minimum inhibitory concentration
[10] = Staphylococcus aureus, S. aureus BF8, read-out: Minimum inhibitory concentration
[11] = Staphylococcus aureus, S. aureus BF9, read-out: Minimum inhibitory concentration
[12] = Staphylococcus aureus, S. aureus BF10, read-out: Minimum inhibitory concentration
[13] = Staphylococcus aureus, S. aureus BF11, read-out: Minimum inhibitory concentration
[14] = Staphylococcus aureus, S. aureus JE2 (wild-type), read-out: MIC
[15] = Staphylococcus aureus, S. aureus MW2, read-out: Minimum inhibitory concentration
[16] = Staphylococcus aureus, S. aureus MW2 mutant SP1-8 (graS)
[17] = Staphylococcus aureus, S. aureus MW2 mutant SP1-48 (graS, manA)
[18] = Staphylococcus aureus, S. aureus MW2 mutant SP1-74 (graS, manA, MW2474)
[19] = Staphylococcus aureus, S. aureus MW2 mutant SP1-100 (graS, manA, MW2474)
[20] = Staphylococcus aureus, S. aureus MW2 mutant SP2-13 (yjbH)
[21] = Staphylococcus aureus, S. aureus MW2 mutant SP2-52 (yjbH, dltB)
[22] = Staphylococcus aureus, S. aureus MW2 mutant SP2-59 (yjbH, dltB, manA)
[23] = Staphylococcus aureus, S. aureus MW2 mutant SP2-65 (yjbH, dltB, manA, MW1685)
[24] = Staphylococcus aureus, S. aureus MW2 mutant SP2-100 (yjbH dltB, manA, MW1685)
[25] = Staphylococcus aureus, S. aureus MW2 serial passage culture SP1-1 (no mutated gene)
[26] = Staphylococcus aureus, S. aureus MW2 serial passage culture SP2-1 (no mutated gene)
[27] = Staphylococcus aureus, S. aureus NE896 (JE2 yjbH::ϕNΣ)
[28] = Staphylococcus aureus, S. aureus NE1645 (JE2 manA::ϕNΣ)
[29] = Staphylococcus aureus, S. aureus NE1756 (JE2 graS::ϕNΣ)
[30] = Staphylococcus aureus, S. aureus VRS1, read-out: Minimum inhibitory concentration
[31] = Staphylococcus aureus, methicillin resistant S. aureus (MRSA) strain MW2, read-out: MIC
[32] = Staphylococcus aureus, MRSA, 28 clinical MRSA isolates, 28/28 isolates, read-out: MIC

T1 sequence (Q12809 whole entry): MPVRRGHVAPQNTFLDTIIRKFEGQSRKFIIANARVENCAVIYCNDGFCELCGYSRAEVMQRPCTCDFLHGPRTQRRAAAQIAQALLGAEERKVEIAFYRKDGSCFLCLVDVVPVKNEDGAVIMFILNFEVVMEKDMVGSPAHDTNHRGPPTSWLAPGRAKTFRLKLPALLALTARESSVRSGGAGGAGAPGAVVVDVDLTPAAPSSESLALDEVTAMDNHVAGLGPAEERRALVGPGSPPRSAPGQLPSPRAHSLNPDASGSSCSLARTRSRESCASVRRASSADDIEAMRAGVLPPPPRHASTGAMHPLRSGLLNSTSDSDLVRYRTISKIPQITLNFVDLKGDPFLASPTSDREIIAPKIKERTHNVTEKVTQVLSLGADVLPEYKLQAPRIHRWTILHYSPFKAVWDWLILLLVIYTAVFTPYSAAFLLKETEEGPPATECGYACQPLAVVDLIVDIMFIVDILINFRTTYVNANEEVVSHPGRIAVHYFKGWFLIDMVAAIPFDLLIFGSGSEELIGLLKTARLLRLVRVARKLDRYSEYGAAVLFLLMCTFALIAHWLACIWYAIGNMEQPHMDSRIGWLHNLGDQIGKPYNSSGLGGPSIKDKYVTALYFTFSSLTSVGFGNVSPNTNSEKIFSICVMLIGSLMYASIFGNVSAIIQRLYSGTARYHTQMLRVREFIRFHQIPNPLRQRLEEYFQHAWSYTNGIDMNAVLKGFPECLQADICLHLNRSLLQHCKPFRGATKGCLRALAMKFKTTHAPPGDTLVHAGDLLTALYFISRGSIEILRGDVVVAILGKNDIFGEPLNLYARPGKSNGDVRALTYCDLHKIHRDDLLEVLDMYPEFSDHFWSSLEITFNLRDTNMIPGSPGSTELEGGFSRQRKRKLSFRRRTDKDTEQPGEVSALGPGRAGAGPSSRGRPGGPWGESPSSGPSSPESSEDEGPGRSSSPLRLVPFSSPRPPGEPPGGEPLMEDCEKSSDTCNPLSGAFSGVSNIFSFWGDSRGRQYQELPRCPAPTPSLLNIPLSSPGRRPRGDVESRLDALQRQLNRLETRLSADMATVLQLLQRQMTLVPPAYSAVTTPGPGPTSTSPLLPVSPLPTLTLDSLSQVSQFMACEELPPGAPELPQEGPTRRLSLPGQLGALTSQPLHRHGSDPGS

SMILES	integrity of giant unilamellar vesicles (GUVs) [1]	MIC (S. aureus; [3]) [µg/mL]	MIC (S. aureus; [4]) [µg/mL]	MIC (S. aureus; [5]) [µg/mL]	MIC (S. aureus; [6]) [µg/mL]	MIC (S. aureus; [7]) [µg/mL]	MIC (S. aureus; [8]) [µg/mL]	MIC (S. aureus; [9]) [µg/mL]	MIC (S. aureus; [10]) [µg/mL]	MIC (S. aureus; [11]) [µg/mL]	MIC (S. aureus; [12]) [µg/mL]	MIC (S. aureus; [13]) [µg/mL]	MIC (S. aureus; [14]) [µg/mL]	MIC (S. aureus; [15]) [µg/mL]	MIC (S. aureus; [16]) [µg/mL]	MIC (S. aureus; [27]) [µg/mL]	MIC (S. aureus; [28]) [µg/mL]	MIC (S. aureus; [29]) [µg/mL]	MIC (S. aureus; [30]) [µg/mL]	MIC (S. aureus; [31]) [µg/mL]	further results
O=C(O)/C=C/c1ccc(-c2ccc(O)c(C34CC5CC(CC(C5)C3)C4)c2)cc1 [Adarotene, (2E)-3-(4′-Hydroxy-3′-tricyclo[3.3.1.13,7]dec-1-yl[1,1′-biphenyl]-4-yl)-2-propenoic acid]	disrupt the integrity	4 (≈ 10.7 µM)	2 (≈ 5.34 µM)	2 (≈ 5.34 µM)	2 (≈ 5.34 µM)	2 (≈ 5.34 µM)	2 (≈ 5.34 µM)	2 (≈ 5.34 µM)	2 (≈ 5.34 µM)	2 (≈ 5.34 µM)	2 (≈ 5.34 µM)	2 (≈ 5.34 µM)	2.5 (≈ 6.68 µM)	2 (≈ 5.34 µM)	3 (≈ 8.01 µM)	4 (≈ 10.7 µM)	4 (≈ 10.7 µM)	4 (≈ 10.7 µM)	1 (≈ 2.67 µM)	2 (≈ 5.34 µM)	rescue of C. elegans from MRSA infection ([2]; result in words): rescued; MIC (S. aureus; MRSA MW2, text b656, read-out: MIC): 2 µg/mL (≈ 5.34 µM); MIC (S. aureus; Staphylococcus aureus, MRSA, 28 clinical MRSA isolates, 1 strain, read-out: MIC): 4 µg/mL (≈ 10.7 µM); MIC (S. aureus; [17]): 4 µg/mL (≈ 10.7 µM); MIC (S. aureus; [18]): 4 µg/mL (≈ 10.7 µM); MIC (S. aureus; [19]): 4 µg/mL (≈ 10.7 µM); MIC (S. aureus; [20]): 3 µg/mL (≈ 8.01 µM); MIC (S. aureus; [21]): 3 µg/mL (≈ 8.01 µM); MIC (S. aureus; [22]): 4 µg/mL (≈ 10.7 µM); MIC (S. aureus; [23]): 4 µg/mL (≈ 10.7 µM); MIC (S. aureus; [24]): 4 µg/mL (≈ 10.7 µM); MIC (S. aureus; [25]): 2 µg/mL (≈ 5.34 µM); MIC (S. aureus; [26]): 2 µg/mL (≈ 5.34 µM); inhibition of hERG potassium channels (hERG potassium channel): did not inhibit
O=C(O)c1ccc2cc(-c3ccc(O)c(C45CC6CC(CC(C6)C4)C5)c3)ccc2c1 [CD437, 6-(4-hydroxy-3-tricyclo[3.3.1.13,7]dec-1-ylphenyl)-2-naphthalenecarboxylic acid]		2 (≈ 5.02 µM)	1 (≈ 2.51 µM)	1 (≈ 2.51 µM)	2 (≈ 5.02 µM)	1 (≈ 2.51 µM)	1 (≈ 2.51 µM)	1 (≈ 2.51 µM)	1 (≈ 2.51 µM)	1 (≈ 2.51 µM)	1 (≈ 2.51 µM)	1 (≈ 2.51 µM)	1.5 (≈ 3.76 µM)	1 (≈ 2.51 µM)		2 (≈ 5.02 µM)	3 (≈ 7.53 µM)	2 (≈ 5.02 µM)	1 (≈ 2.51 µM)	1 (≈ 2.51 µM)	C. elegans animals surviving MRSA infection [2]: 100%; MIC (S. aureus; [32]): ≤ 2 µg/mL; MIC (E. faecalis): 2 to 4 µg/mL (≈ 5.02 to 10 µM); susceptibility of E. faecalis (E. faecalis): susceptible
O=C(O)c1ccc(-c2ccc3cc(O)c(C45CC6CC(CC(C6)C4)C5)cc3c2)cc1 [CD1530, 4-(6-hydroxy-7-tricyclo[3.3.1.13,7]dec-1-yl-2-naphthalenyl)-benzoic acid]	disrupt the integrity	2 (≈ 5.02 µM)	1 (≈ 2.51 µM)	1 (≈ 2.51 µM)	1 (≈ 2.51 µM)	1 (≈ 2.51 µM)	1 (≈ 2.51 µM)	1 (≈ 2.51 µM)	1 (≈ 2.51 µM)	2 (≈ 5.02 µM)	1 (≈ 2.51 µM)	1 (≈ 2.51 µM)	1.5 (≈ 3.76 µM)	1 (≈ 2.51 µM)	1.5 (≈ 3.76 µM)	2 (≈ 5.02 µM)	3 (≈ 7.53 µM)	2 (≈ 5.02 µM)	1 (≈ 2.51 µM)	1 (≈ 2.51 µM)	C. elegans animals surviving MRSA infection [2]: 100%; toxicity to C. elegans ([2]; up to 50 μg/ml): nontoxic; MIC (S. aureus; [32]): ≤ 2 µg/mL; MIC (S. aureus; [17]): 2 µg/mL (≈ 5.02 µM); MIC (S. aureus; [18]): 2 µg/mL (≈ 5.02 µM); MIC (S. aureus; [19]): 2 µg/mL (≈ 5.02 µM); MIC (S. aureus; [20]): 1.5 µg/mL (≈ 3.76 µM); MIC (S. aureus; [21]): 1.5 µg/mL (≈ 3.76 µM); MIC (S. aureus; [22]): 2 µg/mL (≈ 5.02 µM); MIC (S. aureus; [23]): 2 µg/mL (≈ 5.02 µM); MIC (S. aureus; [24]): 2 µg/mL (≈ 5.02 µM); MIC (S. aureus; [25]): 1 µg/mL (≈ 2.51 µM); MIC (S. aureus; [26]): 1 µg/mL (≈ 2.51 µM); MIC (E. faecalis): 2 to 4 µg/mL (≈ 5.02 to 10 µM); susceptibility of E. faecalis (E. faecalis): susceptible; inhibition of hERG potassium channels (hERG potassium channel): did not inhibit
